How the values were obtained:
[1] = tested on: U46619-induced platelet aggregation; test: Antiplatelet aggregation activity (U46619-induced, turbidity, Lumi-aggregometer); type: cell-based; settings: 20 μM, rabbit platelets, n=8
Protocol: 4. […] After centrifuging at […] for 10 mins, the supernatant is platelet-rich plasma (PRP). The platelet suspension is obtained from EDTA-anticoagulated PRP, and the platelet granules are finally suspended in the Tyrode's solution. […] The turbidity is measured at 37° C. by Lumi-aggregometer connected with two dual channel recorders as the aggregation.

C57BL/6J mice [2] = test: The lipid-lowering effect in C57BL/6J mice (high-fat diet); type: in vivo; settings: HFD, after 21 days
Protocol: (§1) 8-week C57BL/6J mice are divided into standard diet (STD) group and the high-fat diet (HFD) group. In the HFD group, the KMUP-1 HCl salt (1, 2.5 and 5 mg/kg), the simvastatin (5 mg/kg), the KMUP-1-Nicotinic acid complex (1 and 5 mg/kg), the KMUP-1-Simvastatinic acid complex (1 and 5 mg/kg), KMUP-1-Gemfibrozil complex (2.5 mg/kg), KMUP-1-Fibric acid complex (2.5 mg/kg), KMUP-1-γ-polyglutamic acid complex (2.5 mg/kg) and KMUP-1-Citric acid complex (2.5 mg/kg) are administered orally. After 21 days, the amounts (mg/dl) of the triglyceride (TG), the total cholesterol (tot.-C), the high density lipoprotein cholesterol (HDL-C), the low density lipoprotein cholesterol (LDL-C) and the serum glucose of six mice for each group are measured as shown in Tables 2 and 3.

TGF-β = test: Bleomycin-induced lung fibrosis in mice, TGF-β expression by EIA; type: in vivo; settings: bleomycin 60 mg/kg
Protocol: 6. KMUP-1 salts inhibit the lung fibrosis in mice induced by bleomycin (BM) mediated via transforming growth factor beta (TGF-β) expression in lung The increased amount of the synthetic collagen and the generation of the macrophage in alveolus may facilitate the formulation of TGF-β, and the expression of TGF-β is looked as a biomarker of the lung fibrosis. […] The state of the TGF-β expression in the irrigation solution is measured by the enzyme immunoassay (EIA).

RAW 264.7 cells = test: Inhibition of RANKL-induced osteoclast differentiation (TRAP staining); type: cell-based; settings: 5 μM, RANKL 10 μg/ml, 5 days, n=5
L1210 leukemia cell line = test: Cytotoxicity to cancer cells, MTT assay; type: cell-based; settings: 3 days, n=6
Protocol: The methotrexate (MTX) is served as the positive control group. Briefly, the cancer cells (5000-10000 cells/ml) is added together with the compounds to be tested into each well of 96-well plate. After culturing for 3 days, the attached cells are cultured in MTT (0.5 mg/ml) for one hour, followed by dissolving the formazan crystal with dimethyl sulfoxide (DMSO). The absorption at 550 nm wave length is measured by the enzyme linked immunosorbent assay (ELISA) reader. IC50 is the concentration of the tested compound for inhibiting 50% cell growth under the experimental conditions.

[3] = tested on: testosterone-induced mice; test: Prostate hypertrophy (BPH) in testosterone-induced mice; type: in vivo; settings: 2.5 mg/kg, testosterone 3 mg/kg/day for 4 weeks, day 28, n=6
Protocol: The testosterone (TS, 3 mg/kg/day) is administered for 4 weeks for inducing BPH in mice, which combines with KMUP-1 HCl salt (2.5 mg/kg), KMUP-1-Citric acid (2.5 mg/kg) and KMUP-1-Nicotinic acid (2.5 mg/kg), and the ratio of hypertrophy (g)/body weight (g) is measured at day 28 (n=6).

[4] = tested on: monocrotaline (MCT)-treated rats; test: Pulmonary artery blood pressure in monocrotaline (MCT)-treated rats; type: in vivo, male Wistar rats
Protocol: 5. the monocrotaline (MCT)-treated rats show the […] pulmonary aterial hypertension
Pulmonary aterial hypertension in MCT-treated rats is caused on day 21 after the intraperitoneal injection. Orally administered KMUP-1 HCl salt (2.5 mg/kg), simvastatin (2.5 mg/kg), KMUP-1-nicotinic acid complex (2.5 mg/kg), KMUP-1-Citric acid complex (2.5 mg/kg), KMUP-1-Simvastatinic acid complex (2.5 mg/kg) and KMUP-1-γ-Polyglutamic acid complex (2.5 mg/kg), or the inhalated KMUP-1-PGI2 (0.1 mM) every day may inhibit the male Wistar rats treated with MCT, which show the effect of decreasing the pulmonary artery blood pressure (PABP).

C57BL/6J mice [5] = test: The amount of the serum glucose and insulin in C57BL/6J mice (high-fat diet); type: in vivo; set-up: The amount of serum insulin: unit not given here; settings: 1 mg/kg orally, HFD, after 21 days
Protocol: as §1

H1N1 virus = type: cell-based; settings: MDCK culture infected with H1N1 virus; for IC50: n=6
[6] = tested on: STZ-induced diabetic rats; test: Serum glucose and body weight in streptozosin (STZ)-induced diabetic rats; type: in vivo; settings: 5 mg/kg orally, after 21 days
Protocol: 2. The effect of KMUP-1 on decreasing the amount of the serum glucose in streptozosin (STZ)-induced diabetic rats
60 mg/kg of streptozosin is injected intravenously for inducing the STZ-induced rats, and the KMUP-1 HCl salt (0.5, 1.5, 2.5 and 5 mg/kg) and KMUP-1-Simvastatinic acid (5 mg/kg) are administered orally. After 21 days, the amount of the serum glucose (mg/dl), the amount of the serum insulin (mg/dl), the body weight (g) and the change of the body weight are measured.

With `COc1ccc2c(c1)c(CC(=O)O)c(C)n2C(=O)c1ccc(Cl)cc1.Cn1c(=O)c2c(ncn2CCN2CCN(c3ccccc3Cl)CC2)n(C)c1=O` [KMUP-1-Indomethacin, KMUP-1-Indomethacin complex] the “The ratio of the antiplatelet aggregation” value (“The ratio” below) [1] was 92 ± 5.8 %.

With `CCC(C)(C)C(=O)O[C@H]1C[C@@H](C)C=C2C=C[C@H](C)[C@H](CC[C@@H]3C[C@@H](O)CC(=O)O3)[C@H]21` [Simvastatin, simvastatin, reference compound] the HDL-C (C57BL/6J mice [2]; 5 mg/kg orally) was 103.18 ± 2.5 mg/dL, the LDL-C (C57BL/6J mice [2]; 5 mg/kg orally) was 15.3 ± 1.3 mg/dL and the TG (C57BL/6J mice [2]; 5 mg/kg orally) was 82.67 ± 6.3 mg/dL. For the same molecule, the tot.-C (C57BL/6J mice [2]; 5 mg/kg orally) was 133.67 ± 4.3 mg/dL, the “Changing % of the lung TGF-β” value (TGF-β; 5 mg/kg orally) was 40 ± 4.3 % and the “TRAP-Positive Cells” value (RAW 264.7 cells) was 85 ± 7.

Work on `CN(Cc1cnc2nc(N)nc(N)c2n1)c1ccc(C(=O)N[C@@H](CCC(=O)O)C(=O)O)cc1.Cn1c(=O)c2c(ncn2CCN2CCN(c3ccccc3Cl)CC2)n(C)c1=O` [KMUP-1-MTX, KMUP-1-Methotrexate (MTX) Complex] yielded an IC50 (L1210 leukemia cell line) of 20 nM.

`Cn1c(=O)c2c(ncn2CCN2CCN(c3ccccc3Cl)CC2)n(C)c1=O.O=C(O)c1cccnc1` [KMUP-1-Nicotinic acid, KMUP-1-Nicotinic acid salt] was tested, and the HDL-C (C57BL/6J mice [2]; 5 mg/kg orally) was 97.98 ± 3.4 mg/dL, the LDL-C (C57BL/6J mice [2]; 5 mg/kg orally) was 13.8 ± 1.2 mg/dL and the TG (C57BL/6J mice [2]; 5 mg/kg orally) was 80.75 ± 7.9 mg/dL. For the same molecule, the tot.-C (C57BL/6J mice [2]; 5 mg/kg orally) was 130 ± 4.1 mg/dL, the “hypertrophy (g)/body weight (g)” value [3] was 0.19 ± 0.07 and the “Changing % of the lung TGF-β” value (TGF-β; 2.5 mg/kg orally) was 42 ± 3.8 %. The PABP ([4]; 2.5 mg/kg/day p.o.) was 12 ± 2.6 mmHg and the “The amount of serum glucose” value (C57BL/6J mice [5]) was 123.5 ± 2.5 mg/dL.

For KMUP-1-PGI2 complex, the PABP ([4]; 0.1 mM (inhalation)) was 10 ± 0.2 mmHg.

With “KMUP-1-γ-polyglutamate complex [KMUP-1-γ-polyglutamic acid]” the HDL-C (C57BL/6J mice [2]; 2.5 mg/kg orally) was 97.3 ± 1.6 mg/dL, the LDL-C (C57BL/6J mice [2]; 2.5 mg/kg orally) was 16.5 ± 0.9 mg/dL and the TG (C57BL/6J mice [2]; 2.5 mg/kg orally) was 78.2 ± 3.6 mg/dL. For the same molecule, the tot.-C (C57BL/6J mice [2]; 2.5 mg/kg orally) was 129.4 ± 1.4 mg/dL, the “Changing % of the lung TGF-β” value (TGF-β; 2.5 mg/kg orally) was 42 ± 1.6 % and the PABP ([4]; 2.5 mg/kg/day p.o.) was 11 ± 0.6 mmHg.

With `CC[C@H](C)C(=O)O[C@H]1C[C@@H](C)C=C2C=C[C@H](C)[C@H](CC[C@@H](O)C[C@@H](O)CC(=O)O)[C@H]21.Cn1c(=O)c2c(ncn2CCN2CCN(c3ccccc3Cl)CC2)n(C)c1=O` [KMUP-1-Lovastatinic acid, KMUP-1-Lovastatinic acid complex] the IC50 (H1N1 virus) was 1.9 µg/mL and the “TRAP-Positive Cells” value (RAW 264.7 cells) was 73 ± 6.

`CN(Cc1cnc2nc(N)nc(N)c2n1)c1ccc(C(=O)N[C@@H](CCC(=O)O)C(=O)O)cc1` [MTX, methotrexate, reference compound] was tested, and the IC50 (L1210 leukemia cell line; Mus musculus, 72 h) was 12 nM.

With `COc1ccc2c(c1)c(CC(=O)O)c(C)n2C(=O)c1ccc(Cl)cc1` [Indomethacin, indomethacin, reference compound] the “The ratio” value [1] was 87 ± 8.3 %.

`Cn1c(=O)c2c(ncn2CCN2CCN(c3ccccc3Cl)CC2)n(C)c1=O.O=C(O)CC(O)(CC(=O)O)C(=O)O` [KMUP-1-Citric acid, KMUP-1-Citric acid salt] gave an HDL-C (C57BL/6J mice [2]; 2.5 mg/kg orally) of 108.4 ± 1.3 mg/dL, an LDL-C (C57BL/6J mice [2]; 2.5 mg/kg orally) of 16.4 ± 1.7 mg/dL and a TG (C57BL/6J mice [2]; 2.5 mg/kg orally) of 83.2 ± 5.3 mg/dL. The tot.-C (C57BL/6J mice [2]; 2.5 mg/kg orally) was 129.7 ± 1.6 mg/dL, the “The ratio” value [1] was 78 ± 2.7 % and the “hypertrophy (g)/body weight (g)” value [3] was 0.23 ± 0.05. The PABP ([4]; 2.5 mg/kg/day p.o.) was 16 ± 1.8 mmHg.

For `CCC(C)(C)C(=O)O[C@H]1C[C@@H](C)C=C2C=C[C@H](C)[C@H](CC[C@@H](O)C[C@@H](O)CC(=O)O)[C@H]21.Cn1c(=O)c2c(ncn2CCN2CCN(c3ccccc3Cl)CC2)n(C)c1=O` [KMUP-1-Simvastatinic acid, KMUP-1-Simvastatinic acid complex], the HDL-C (C57BL/6J mice [2]; 5 mg/kg orally) was 108.4 ± 1.3 mg/dL, the LDL-C (C57BL/6J mice [2]; 5 mg/kg orally) was 17.3 ± 1.4 mg/dL and the TG (C57BL/6J mice [2]; 5 mg/kg orally) was 81.2 ± 4.4 mg/dL. The tot.-C (C57BL/6J mice [2]; 5 mg/kg orally) was 129.7 ± 1.4 mg/dL, the “growth of the virus (in words)” value (H1N1 virus; in glucose solution) was “can inhibit the growth of the virus” and the IC50 (H1N1 virus) was 1.8 µg/mL. The “Changing % of the lung TGF-β” value (TGF-β; 2.5 mg/kg orally) was 45 ± 4.5 %, the “TRAP-Positive Cells” value (RAW 264.7 cells) was 72 ± 5 and the “The amount of the serum glucose” value [6] was 194.2 ± 16.1 mg/dL. The PABP ([4]; 2.5 mg/kg/day p.o.) was 12 ± 1.3 mmHg, the “The amount of serum glucose” value (C57BL/6J mice [5]) was 117.3 ± 3.8 mg/dL and the “The amount of serum insulin” value (C57BL/6J mice [5]) was 0.85 ± 0.17.

Reference: patent publication US8470805B2, “Processes for preparing piperazinium salts of KMUP and use thereof” (Kaohsiung Medical University, priority 2009, dated 2013)
